In US5077293A, “1-indolyalkyl-4-(alkoxypyrimidinyl)piperazines” (Bristol-Myers Squibb Co., priority 1990, dated 1991):

System: serotonin uptake
Assay: Inhibition of serotonin uptake (in vitro): inhibition of synaptosomal reuptake of tritiated serotonin
Format: biochemical
Experimental: Determination of endogenous monoaminergic re-uptake inhibition values both for serotonin and norepinephrine was accomplished using test methods described by P. Skolnick, et al., Br. J. Pharmacology (1985), 86, pp. 637-644; with only minor modifications. In vitro IC50 (nM) test values were determined for representative compounds of Formula I based on their inhibition of synaptosomal reuptake of tritiated serotonin. Test data IC50 values lower than 500 nM are considered to reflect activity as an inhibitor of serotonin reuptake. Compounds with Ic50 values lower than 100 nM comprise preferred compounds.

SMILES | IC50
COc1cncnc1N1CCN(CCCc2c[nH]c3ccc(F)cc23)C(C)C1 (stereo not shown) [Example 23, 3-[3-[4-(5-Methoxy-4-pyrimidinyl)-2-methyl-1-piperazinyl]propyl]-5-fluoroindole] | 0.03 nM
COc1cncnc1N1CCN(CCCc2c[nH]c3ccc(F)cc23)CC1 [Example 24, 3-[3-[4-(5-Methoxy-4-pyrimidinyl)-1-piperazinl]propyl]-5-fluoroindole] | 0.3 nM
COc1cncnc1N1CCN(CCCc2c[nH]c3cc(F)ccc23)C(C)C1 (stereo not shown) [Example 25, 3-[3-[4-(5-Methoxy-4-pyrimidinyl)-2-methyl-1-pioerazinyl]-propyl]-6-fluoroindole] | 3.7 nM
CCOc1cncnc1N1CCN(CCCc2c[nH]c3ccccc23)CC1 [Example 27] | 6.35 nM
COc1cncnc1N1CCN(CCCc2c[nH]c3ccccc23)CC1 [Example 28] | 4.3 nM
COc1cncnc1N1CCN(CCCc2c[nH]c3ccc(Cl)cc23)CC1 [Example 29] | 2.9 nM
COc1cncnc1N1CCN(CCCc2c[nH]c3cc(F)c(F)cc23)C(C)C1 (stereo not shown) [Example 30] | 1.46 nM
COc1cncnc1N1CCN(CCc2c[nH]c3ccc(F)cc23)CC1 [Example 31] | 0.92 nM
COc1cncnc1N1CCN(CCCc2c[nH]c3ccc(Cl)cc23)C(C)C1 (stereo not shown) [Example 32] | 2.1 nM
CCC1CN(c2ncncc2OC)CCN1CCCc1c[nH]c2ccccc12 (stereo not shown) [Example 33] | 2.64 nM
COc1cncnc1N1CCN(CCc2c[nH]c3cc(F)c(F)cc23)CC1 [Example 34] | 3.1 nM
COc1cncnc1N1CCN(CCc2c[nH]c3ccc(F)cc23)C(C)C1 (stereo not shown) [Example 35] | 3.1 nM
COc1cncnc1N1CCN(CCCc2cn(C)c3ccccc23)C(C)C1 (stereo not shown) [Example 36] | 4.7 nM
COc1cc(N2CCN(CCCc3c[nH]c4ccccc34)CC2)ncn1 [Example 37] | 5.85 nM
CCOc1cncnc1N1CCN(CCCc2c[nH]c3ccccc23)C(C)C1 (stereo not shown) [Example 38] | 13.4 nM
COc1cc(N2CCN(CCCc3c[nH]c4ccccc34)C(C)C2)ncn1 (stereo not shown) [Example 39] | 9.3 nM
